Assay results: patent publication US5338733A, “Isoxazolidinyl carbapenem derivative” (Shionogi Seiyaku Kabushiki Kaisha, priority 1992, dated 1994)
≈ marks a conversion by molar mass, not a printed value. Counter-ions that a name gives are not always drawn. Like-named read-outs stand apart in the source and are kept apart here.

How the values were obtained:
[1] = test system: Staphylococcus aureus 209P; assay: MIC, Staphylococcus aureus 209P; format: cell-based; details: read-out: MIC (Minimal Inhibitory Concentration)
Description: (§1) The carbapenem compounds obtained in Examples 3, 5 and 8 were evaluated for antimicrobial activity, the integrated value of a concentration in blood (Area Under the Curve: AUC), recovery from urine and decomposition by human kidney dehydropeptidase-1 by using imipenem, meropenem and cephalosporin derivatives (A) and (B) as controls.
(§2) 1) MIC (Minimal Inhibitory Concentration) (γ/ml):
(§3) Antimicrobial activity was evaluated by using MIC.

Entercoccus SR1004 = assay: MIC, Entercoccus SR1004; format: cell-based; details: read-out: MIC (Minimal Inhibitory Concentration)
Description: as §1, §2, §3

[2] = test system: Pseudomonas aeruginosa SR1012; assay: MIC, Pseudomonas aeruginosa SR1012; format: cell-based
Description: as §1, §2, §3

in vivo [3] = details: mouse, iv
Description: as §1
2) Concentration in Blood (γ/ml):
Each compound was intravenously injected into a mouse, and the concentration in the blood 15 minutes after the injection was measured.
3) Recovery from Urine (%):
Each compound was intravenously injected into a mouse and a monkey, and the content in the urine 24 hours after the injection was measured. A rate of recovery was obtained from the content.

in vivo [4] = details: monkey, iv
in vitro = in vitro ADME, human; details: human, kidney dehydropeptidase-1
Description: as §1

[5] = test system: human kidney dehydropeptidase-1; assay: in vitro; format: in vitro ADME
Description: as §1

[6] = test system: Gram-positive bacteria and Gram-negative bacteria; assay: Antimicrobial activity against Gram-positive and Gram-negative bacteria (overall); format: cell-based; details: as compared with imipenem, meropenem and cephalosporin derivatives (A) and (B); in words
Description: as §1, §2, §3

[7] = Pseudomonas aeruginosa SR1012, read-out: MIC (Minimal Inhibitory Concentration)

| Structure (SMILES) | MIC ([1]; Staphylococcus aureus 209P) | MIC (Entercoccus SR1004; Entercoccus SR1004) | MIC [2, 7] | AUC (in vivo [3]) | concentration at 0.25 h (in vivo [3]) | AUC (in vivo [4]) | metabolised (in vitro) | hydrolysis rate in the body [5] | antimicrobial activity against Gram-positive bacteria and Gram-negative bacteria [6] | MIC ([1]; Staphylococcus aureus, 209P) | MIC (Entercoccus SR1004) | MIC ([2]; Pseudomonas aeruginosa, SR1012, read-out: MIC (Minimal Inhibitory Concentration)) |
| --- | --- | --- | --- | --- | --- | --- | --- | --- | --- | --- | --- | --- |
| CN1CCC(C2=C(C(=O)O)N3C(=O)C(NC(=O)C(=NO)c4csc(N)n4)C3SC2)O1 (stereo not drawn) [Cephalosporin (A)] | 0.78 µg/mL (≈ 1.72 µM) |  |  |  |  |  |  |  |  |  |  |  |
| C[N+]1(C)CCC(C2=C(C(=O)[O-])N3C(=O)C(NC(=O)C(=NO)c4csc(N)n4)C3SC2)O1 (stereo not drawn) [Cephalosporin (B)] | 0.2 µg/mL (≈ 0.427 µM) |  |  |  |  |  |  |  |  |  |  |  |
| C[C@H]1C([C@H]2CC[N+](C)(C)O2)=C(C(=O)[O-])N2C(=O)[C@H]([C@@H](C)O)C12 (stereo partly drawn) [Example 3, (1S,6S)-6-((R)-1-hydroxyethyl)-2-((5R)-2,2-dimethylisoxazolidinio-5-yl)-1-methyl-1-carba-2-penem-3-carboxylate] | 0.0125 µg/mL (≈ 0.0403 µM) | 0.78 µg/mL (≈ 2.51 µM) | 0.78 µg/mL (≈ 2.51 µM) | 19000 ng·h/mL | 36300 ng/mL | 35200 ng·h/mL | 97% | low hydrolysis rate | excellent antimicrobial activity |  |  |  |
| C[C@H]1C([C@@H]2CC[N+](C)(C)O2)=C(C(=O)[O-])N2C(=O)[C@H]([C@@H](C)O)C12 (stereo partly drawn) [Example 5, (1S,6S)-6-((R)-1-hydroxyethyl)-2-((5S)-2,2-dimethylisoxazolidinio-5-yl)-1-methyl-1-carba-2-penem-3-carboxylate] | 0.0125 µg/mL (≈ 0.0403 µM) | 0.78 µg/mL (≈ 2.51 µM) | 1.56 µg/mL (≈ 5.03 µM) |  |  |  |  | low hydrolysis rate | excellent antimicrobial activity |  |  |  |
| C[C@H]1C([C@@H]2CCN(C)O2)=C(C(=O)O)N2C(=O)[C@H]([C@@H](C)O)C12 (stereo partly drawn) [Example 8, sodium (1S,6S)-6-((R)-l-hydroxyethyl)-1-methyl-2-((5S)-2-methylisoxazolidine-5-yl)-1-carba-2-penem-3-carboxylate salt] | 0.1 µg/mL |  |  |  |  |  |  | low hydrolysis rate | excellent antimicrobial activity |  |  |  |
| C[C@@H](O)[C@H]1C(=O)N2C(C(=O)O)=C(SCCN=CN)C[C@H]12 [Imipenen, imipenem] |  |  |  | 8800 ng·h/mL | 20600 ng/mL | 13300 ng·h/mL | 73% |  |  | 0.0125 µg/mL (≈ 0.0418 µM) | 1.56 µg/mL (≈ 5.21 µM) | 1.56 µg/mL (≈ 5.21 µM) |
| C[C@@H](O)[C@H]1C(=O)N2C(C(=O)O)=C(S[C@@H]3CN[C@H](C(=O)N(C)C)C3)[C@H](C)[C@H]12 [Meropenen, meropenem] | 0.1 µg/mL (≈ 0.261 µM) | 6.25 µg/mL (≈ 16.3 µM) | 0.78 µg/mL (≈ 2.03 µM) | 5200 ng·h/mL | 13700 ng/mL | 17200 ng·h/mL | 87% |  |  |  |  |  |
